These are literature values, as cited in US20070276004A1, “Pharmaceutical Composition Comprising an Immunosuppressant for Use in the Treatment of Skin Diseases” (priority 2003, published 2007).

The data set concerns allogeneic kidney transplantation. Conditions: rat model of allogeneic kidney transplantation; oral administration; suppression of systemic immune response.

`C=CC[C@@H]1/C=C(\C)C[C@H](C)C[C@H](OC)[C@H]2O[C@@](O)(C(=O)C(=O)N3CCCC[C@H]3C(=O)O[C@H](/C(C)=C/[C@@H]3CC[C@@H](O)[C@H](OC)C3)[C@H](C)[C@@H](O)CC1=O)[C@H](C)C[C@@H]2OC` [tacrolimus]: the “minimum effective dose (MED)” value was 14 mg/kg.
